These results are taken from BindingDB's records for PubMed 7903385 (Creighton University, 1993).

For this assay, the target named is T1, Alpha-2A adrenergic receptor (Sus scrofa, UniProt P18871).
T1 sequence (P18871 whole entry): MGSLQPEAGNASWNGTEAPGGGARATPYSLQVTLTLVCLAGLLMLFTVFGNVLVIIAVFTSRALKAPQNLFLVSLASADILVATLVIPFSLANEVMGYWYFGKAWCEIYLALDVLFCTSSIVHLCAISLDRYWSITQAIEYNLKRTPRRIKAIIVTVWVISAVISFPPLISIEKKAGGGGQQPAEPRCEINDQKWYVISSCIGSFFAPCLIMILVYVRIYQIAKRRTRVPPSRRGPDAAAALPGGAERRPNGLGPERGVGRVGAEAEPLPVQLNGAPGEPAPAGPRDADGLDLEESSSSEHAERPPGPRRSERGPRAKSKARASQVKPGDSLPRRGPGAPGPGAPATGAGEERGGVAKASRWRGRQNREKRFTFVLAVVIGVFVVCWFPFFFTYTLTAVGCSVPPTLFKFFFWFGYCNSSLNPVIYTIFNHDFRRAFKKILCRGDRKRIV

`C=Cc1sc2ccc(Cl)c3c2c1CN(C)CC3` [SKF 104856] showed a Ki of 54.5 nM. That is a double-digit nanomolar value.

By Ki is commonly meant the equilibrium dissociation constant of an inhibitor or competing ligand from its target. Lower therefore signals tighter binding.
